Reference: ChEMBL document CHEMBL1140215, “Discovery of sodium R-(+)-4-{2-[5-(2-fluoro-3-methoxyphenyl)-3-(2-fluoro-6-[trifluoromethyl]benzyl)-4-methyl-2,6-dioxo-3,6-dihydro-2H-pyrimidin-1-yl]-1-phenylethylamino}butyrate (elagolix), a potent and orally available nonpeptide antagonist of the human gonadotropin-releasing hormone receptor” (J Med Chem, 2008)
Active and inactive are the calls of the source. The rule behind the calls is not given here.

Experiments:
[1] = target: T1, Gonadotropin-releasing hormone receptor (Homo sapiens, UniProt P30968); test: Displacement of [125I-Tyr5,DLeu6,NMeLeu7,Pro9-NEt-]GnRH from human GnRH receptor expressed in HEK293 cells by liquid scintillation counting; type: cell-based
T1 sequence (P30968 whole entry): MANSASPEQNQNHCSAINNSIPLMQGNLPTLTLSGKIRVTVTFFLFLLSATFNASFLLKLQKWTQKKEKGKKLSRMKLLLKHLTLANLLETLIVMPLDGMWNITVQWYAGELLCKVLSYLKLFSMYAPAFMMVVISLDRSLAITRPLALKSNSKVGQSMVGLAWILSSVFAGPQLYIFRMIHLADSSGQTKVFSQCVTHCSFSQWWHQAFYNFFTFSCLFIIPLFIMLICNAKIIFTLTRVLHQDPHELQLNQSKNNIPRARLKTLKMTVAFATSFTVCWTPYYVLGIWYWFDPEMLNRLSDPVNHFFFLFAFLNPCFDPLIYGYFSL

Cytochrome P450 3A4 = Cytochrome P450 3A4 (Homo sapiens, UniProt P08684); test: Inhibition of CYP3A4; type: ADME
[2] = Apparent permeability across human Caco-2 cell membrane; type: ADME, cell-based
[3] = Tmax in mouse; type: ADME, organism-based; details: in vivo
[4] = Tmax in rhesus monkey; type: ADME, organism-based, Macaca mulatta; details: in vivo
[5] = Plasma clearance in mouse; type: ADME, organism-based
[6] = (§1) AUC in rat at 3 mg/kg, iv; type: ADME, organism-based, Plasma; parameters: dose 3 mg/kg, route intravenous; details: plasma
[7] = AUC in Beagle dog at 50 mg/kg, po; type: ADME, organism-based, Canis lupus familiaris; parameters: dose 50 mg/kg, route oral; details: plasma
[8] = Tmax in Beagle dog at 50 mg/kg, po; type: ADME, organism-based, Canis lupus familiaris; parameters: dose 50 mg/kg, route oral; details: in vivo
[9] = Bioavailability in Beagle dog at 50 mg/kg; type: ADME, organism-based, Canis lupus familiaris; details: in vivo
[10] = Volume of distribution in mouse; type: ADME, organism-based; details: in vivo
[11] = AUC in mouse; type: ADME, organism-based; details: plasma
Caco-2 [12] = test: Ratio of permeability from apical to basolateral side over basolateral to apical side in human Caco-2 cells; type: ADME, cell-based
[13] = Half life in rat at 3 mg/kg, iv; type: ADME, organism-based; parameters: dose 3 mg/kg, route intravenous; details: in vivo
[14] = target: T1, Gonadotropin-releasing hormone receptor; test: Antagonist activity at human GnRH receptor expressed in RBL1 cells assessed as inhibition of GnRH-stimulated inositol phosphate production; type: functional, cell-based, RBL-1
Canis familiaris = test: Volume of distribution in Beagle dog at 50 mg/kg, po; type: ADME, organism-based, Canis lupus familiaris; parameters: dose 50 mg/kg, route oral; details: in vivo
[15] = target: T2, Gonadotropin-releasing hormone receptor (Macaca mulatta, UniProt Q8SPZ1); test: Displacement of [125I-Tyr5,DLeu6,NMeLeu7,Pro9-NEt-]GnRH from monkey GnRH receptor expressed in CHO cells by liquid scintillation counting; type: cell-based
T2 sequence (Q8SPZ1 whole entry): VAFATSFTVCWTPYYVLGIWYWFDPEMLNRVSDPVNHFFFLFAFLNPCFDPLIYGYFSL

[16] = target: T3, Gonadotropin-releasing hormone receptor (Rattus norvegicus, UniProt P30969); test: Displacement of [125I-Tyr5,DLeu6,NMeLeu7,Pro9-NEt-]GnRH from rat GnRH receptor expressed in CHO cells by liquid scintillation counting; type: cell-based
T3 sequence (P30969 whole entry): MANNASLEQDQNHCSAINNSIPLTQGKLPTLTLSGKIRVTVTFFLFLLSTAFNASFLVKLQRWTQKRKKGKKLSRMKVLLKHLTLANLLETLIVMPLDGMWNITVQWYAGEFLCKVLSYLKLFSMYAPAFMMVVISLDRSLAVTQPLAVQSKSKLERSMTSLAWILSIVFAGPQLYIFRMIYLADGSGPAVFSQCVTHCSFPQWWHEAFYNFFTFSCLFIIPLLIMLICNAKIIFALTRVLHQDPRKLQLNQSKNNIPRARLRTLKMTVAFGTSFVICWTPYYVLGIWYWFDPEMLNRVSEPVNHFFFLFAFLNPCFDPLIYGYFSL

[17] = Cmax in Beagle dog at 50 mg/kg, po; type: ADME, organism-based, Canis lupus familiaris; parameters: dose 50 mg/kg, route oral; details: in vivo
[18] = Tmax in rat at 3 mg/kg, iv; type: ADME, organism-based; parameters: dose 3 mg/kg, route intravenous; details: in vivo
[19] = Cmax in mouse; type: ADME, organism-based; details: in vivo
[20] = Half life in Beagle dog at 50 mg/kg, po; type: ADME, organism-based, Canis lupus familiaris; parameters: dose 50 mg/kg, route oral; details: in vivo
[21] = Half life in rhesus monkey; type: ADME, organism-based, Macaca mulatta; details: in vivo
Caco-2 [22] = test: Ratio of permeability from apical to basolateral side over basolateral to apical side in human Caco-2 cells at 1 mM; type: ADME, cell-based; details: caco-2, 1000 µM
[23] = Volume of distribution in rhesus monkey; type: ADME, organism-based, Macaca mulatta; details: in vivo
[24] = Oral bioavailability in mouse; type: ADME, organism-based; details: in vivo
[25] = Half life in mouse; type: ADME, organism-based; details: in vivo
[26] = AUC in rhesus monkey; type: ADME, organism-based, Macaca mulatta; details: plasma
[27] = Bioavailability in rat at 3 mg/kg, iv; type: ADME, organism-based; details: in vivo
Mast cell = test: Induction of histamine release in rat peritoneal mast cells; type: functional, cell-based
[28] = Lipophilicity, log D of the compound; type: physicochemical; details: octanol/water
[29] = Oral bioavailability in rhesus monkey; type: ADME, organism-based, Macaca mulatta; details: in vivo
[30] = Cmax in rhesus monkey; type: ADME, organism-based, Macaca mulatta; details: in vivo
[31] = Plasma clearance in rhesus monkey; type: ADME, organism-based, Macaca mulatta
[32] = Cmax in rat at 3 mg/kg, iv; type: ADME, organism-based; parameters: dose 3 mg/kg, route intravenous; details: in vivo
Cynomolgus monkey [33] = test: Suppression of circulating plasma LH levels in cynomolgus monkey at 30 mg/kg, po after 8 hrs; type: functional, Macaca fascicularis
[34] = Volume of distribution in rat at 3 mg/kg, iv; type: ADME, organism-based; parameters: dose 3 mg/kg, route intravenous; details: in vivo
[35] = Plasma clearance in Beagle dog at 50 mg/kg, po; type: ADME, organism-based, Canis lupus familiaris; parameters: dose 50 mg/kg, route oral
[36] = Plasma clearance in rat at 3 mg/kg, iv; type: ADME, organism-based; parameters: dose 3 mg/kg, route intravenous
[37] = AUC in rat at 10 mg/kg, iv and 10 mg/kg, po; type: ADME, organism-based; details: plasma
[38] = Cmax in rat at 10 mg/kg, iv and 10 mg/kg, po; type: ADME, organism-based; details: in vivo
[39] = Tmax in rat at 10 mg/kg, iv and 10 mg/kg, po; type: ADME, organism-based; details: in vivo
[40] = Volume of distribution in rat at 10 mg/kg, iv and 10 mg/kg, po; type: ADME, organism-based; details: in vivo
Cynomolgus monkey [41] = test: Suppression of circulating plasma LH levels in cynomolgus monkey at 30 mg/kg, po after 4 to 8 hrs; type: functional, Macaca fascicularis
[42] = Oral bioavailability in rat at 10 mg/kg, iv and 10 mg/kg, po; type: ADME, organism-based; details: in vivo
[43] = Plasma clearance in rat at 10 mg/kg, iv and 10 mg/kg, po; type: ADME, organism-based
[44] = Half life in rat at 10 mg/kg, iv and 10 mg/kg, po; type: ADME, organism-based; details: in vivo
Rattus norvegicus = test: as §1; type: ADME, organism-based, Plasma; parameters: dose 3 mg/kg, route intravenous; details: in vivo

Cytochrome P450 3A4, sequence (P08684 whole entry): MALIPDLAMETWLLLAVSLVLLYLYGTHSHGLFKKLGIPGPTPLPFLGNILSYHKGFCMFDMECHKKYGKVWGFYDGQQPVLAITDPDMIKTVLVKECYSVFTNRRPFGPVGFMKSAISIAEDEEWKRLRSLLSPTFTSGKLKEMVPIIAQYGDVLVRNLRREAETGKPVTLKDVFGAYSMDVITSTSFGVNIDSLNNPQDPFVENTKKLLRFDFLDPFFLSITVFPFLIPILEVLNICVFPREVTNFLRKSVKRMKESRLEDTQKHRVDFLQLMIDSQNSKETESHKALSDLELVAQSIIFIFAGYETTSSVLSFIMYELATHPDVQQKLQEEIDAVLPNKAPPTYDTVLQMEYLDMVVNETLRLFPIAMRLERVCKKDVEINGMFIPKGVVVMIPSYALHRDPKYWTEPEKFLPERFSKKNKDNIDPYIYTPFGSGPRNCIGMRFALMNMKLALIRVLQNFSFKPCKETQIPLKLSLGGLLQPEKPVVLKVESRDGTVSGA

SMILES: COc1cccc(-c2c(C)n(Cc3c(F)cccc3C(F)(F)F)c(=O)n(C[C@H](NCCCCC(=O)O)c3ccccc3)c2=O)c1F
- Ki [1]: 0.0076 µM
- IC50 (Cytochrome P450 3A4): 29 µM

SMILES: COc1cccc(-c2c(C)n(Cc3c(F)cccc3C(F)(F)F)c(=O)n(C[C@H](NCCCC(=O)[O-])c3ccccc3)c2=O)c1F.[Na+] [ELAGOLIX SODIUM]
- Papp [2]: 2.8 ×10⁻⁶ cm/s
- Tmax [3]: 0.25 h
- Tmax [4]: 0.69 h
- clearance [5]: 50 mL/min/kg
- AUC [6]: 290 ng·h/mL
- AUC [7]: 80700 ng·h/mL
- Tmax [8]: 2 h
- bioavailability [9]: 100%
- Vd [10]: 1.4 L/kg
- AUC [11]: 326 ng·h/mL
- Ratio (Caco-2 [12]): 9.2
- half-life [13]: 0.9 h
- IC50 [14]: 0.0015 µM
- Vd (Canis familiaris): 0.92 L/kg
- Ki [15]: 0.0033 µM
- Ki [16]: 4.4 µM
- Cmax [17]: 13900 ng/mL
- Tmax [18]: 0.25 h
- Cmax [19]: 741 ng/mL
- half-life [20]: 2.8 h
- half-life [21]: 1.1 h
- Ratio (Caco-2 [22]): 1.3
- Vd [23]: 2.5 L/kg
- bioavailability [24]: 10%
- half-life [25]: 0.3 h
- AUC [26]: 699 ng·h/mL
- Ki [1]: 0.0009 µM
- bioavailability [27]: 5.8%
- IC50 (Cytochrome P450 3A4): 56 µM
- Activity (Mast cell): inactive
- logD [28]: 2
- bioavailability [29]: 11%
- Cmax [30]: 518 ng/mL
- clearance [31]: 25.7 mL/min/kg
- Cmax [32]: 338 ng/mL
- Activity (Cynomolgus monkey [33]): 75%
- Vd [34]: 2.6 L/kg
- CL/F [35]: 14.5 mL/min/kg
- clearance [36]: 33.3 mL/min/kg

SMILES: COc1cccc(-c2c(C)n(Cc3c(F)cccc3C(F)(F)F)c(=O)n(C[C@H](NCCC(=O)O)c3ccccc3)c2=O)c1F
- Ki [1]: 0.012 µM
- IC50 (Cytochrome P450 3A4): 69 µM

SMILES: COc1cccc(-c2c(C)n(Cc3c(F)cccc3C(F)(F)F)c(=O)n(C[C@H](N)c3ccccc3)c2=O)c1F
- AUC [37]: 46 ng·h/mL
- Cmax [38]: 15 ng/mL
- IC50 [14]: 0.0005 µM
- Ki [16]: 1.2 µM
- IC50 (Cytochrome P450 3A4): 0.23 µM
- Tmax [39]: 1.2 h

SMILES: COc1cccc(-c2c(C)n(Cc3c(F)cccc3Cl)c(=O)n(C[C@H](NCCCC(=O)O)c3ccccc3)c2=O)c1F
- IC50 [14]: 0.0032 µM
- Ki [1]: 0.0011 µM
- IC50 (Cytochrome P450 3A4): 11 µM

SMILES: COc1cccc(-c2c(C)n(Cc3c(F)cccc3F)c(=O)n(C[C@H](N)c3ccccc3)c2=O)c1F
- Papp [2]: 17.6 ×10⁻⁶ cm/s
- AUC [37]: 106 ng·h/mL
- Vd [40]: 7.1 L/kg
- Cmax [38]: 24.2 ng/mL
- Activity (Cynomolgus monkey [41]): 50%
- bioavailability [42]: 3.5%
- clearance [43]: 64.7 mL/min/kg
- IC50 (Cytochrome P450 3A4): 0.7 µM
- Tmax [39]: 1 h
- logD [28]: 1.8
- half-life [44]: 1.3 h

SMILES: COc1cccc(-c2c(C)n(Cc3c(F)cccc3C(F)(F)F)c(=O)n(C[C@H](NCC(=O)O)c3ccccc3)c2=O)c1F
- Ki [1]: 0.071 µM

SMILES: COc1cccc(-c2c(C)n(Cc3c(F)cccc3F)c(=O)n(C[C@H](NCCCC(=O)O)c3ccccc3)c2=O)c1F
- Papp [2]: 0.4 ×10⁻⁶ cm/s
- AUC (Rattus norvegicus): 81 ng·h/mL
- Ratio (Caco-2 [12]): 51
- half-life [13]: 4.5 h
- IC50 [14]: 0.027 µM
- Ki [16]: > 10 µM
- Tmax [18]: 0.8 h
- Ki [1]: 0.0021 µM
- bioavailability [27]: 1.1%
- IC50 (Cytochrome P450 3A4): 135 µM
- logD [28]: 0.2
- Cmax [32]: 25 ng/mL
- Vd [34]: 8.5 L/kg

SMILES: COc1cccc(-c2c(C)n(Cc3c(F)cccc3C(F)(F)F)c(=O)n(C[C@@H](c3ccccc3)N(C)CCCC(=O)O)c2=O)c1F
- Papp [2]: 7.5 ×10⁻⁶ cm/s
- AUC [6]: 385 ng·h/mL
- Ratio (Caco-2 [12]): 4
- half-life [13]: 2.6 h
- Tmax [18]: 0.25 h
- Ki [1]: 0.0037 µM
- bioavailability [27]: 3.7%
- IC50 (Cytochrome P450 3A4): 69 µM
- Cmax [32]: 592 ng/mL
- Vd [34]: 3.2 L/kg
- clearance [36]: 26.4 mL/min/kg

SMILES: COC(=O)CCCN[C@@H](Cn1c(=O)c(-c2cccc(OC)c2F)c(C)n(Cc2c(F)cccc2C(F)(F)F)c1=O)c1ccccc1
- Ki [1]: 0.0042 µM
- IC50 (Cytochrome P450 3A4): 0.44 µM
